This passage reports Emax and EC50 results from patent publication US9487508B2, “SGC stimulators” (IRONWOOD PHARMACEUTICALS, INC., priority 2012, dated 2016).

Broadly, the Emax is the greatest response seen or fitted, relative to the assay's reference. What is called pEC50 is the negative decadic logarithm of the EC50, by convention in mol/L.

This experiment deals with T1, soluble guanylate cyclase (sGC) (Homo sapiens, UniProt Q02108+Q02153).
T1 construct: endogenously expressing soluble guanylate cyclase (sGC); endogenous in cells; host or cells: HEK293
T1 sequence (Q02153 1-619): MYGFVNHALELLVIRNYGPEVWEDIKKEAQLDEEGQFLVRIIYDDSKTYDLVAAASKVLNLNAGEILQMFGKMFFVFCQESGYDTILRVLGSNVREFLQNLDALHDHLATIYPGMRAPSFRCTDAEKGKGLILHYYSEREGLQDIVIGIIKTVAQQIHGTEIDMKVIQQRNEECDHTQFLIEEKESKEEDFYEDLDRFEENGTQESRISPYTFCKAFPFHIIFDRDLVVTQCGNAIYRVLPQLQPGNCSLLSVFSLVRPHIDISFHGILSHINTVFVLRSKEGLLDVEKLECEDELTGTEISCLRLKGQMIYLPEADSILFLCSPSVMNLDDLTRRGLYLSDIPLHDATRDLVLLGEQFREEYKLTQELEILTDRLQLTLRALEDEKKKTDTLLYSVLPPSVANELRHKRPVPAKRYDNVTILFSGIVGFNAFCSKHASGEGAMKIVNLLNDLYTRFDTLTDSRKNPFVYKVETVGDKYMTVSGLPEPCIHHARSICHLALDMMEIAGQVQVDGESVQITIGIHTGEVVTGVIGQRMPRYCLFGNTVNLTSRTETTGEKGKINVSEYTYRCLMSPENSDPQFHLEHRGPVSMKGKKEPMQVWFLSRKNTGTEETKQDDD
T1 sequence (Q02108 1-690): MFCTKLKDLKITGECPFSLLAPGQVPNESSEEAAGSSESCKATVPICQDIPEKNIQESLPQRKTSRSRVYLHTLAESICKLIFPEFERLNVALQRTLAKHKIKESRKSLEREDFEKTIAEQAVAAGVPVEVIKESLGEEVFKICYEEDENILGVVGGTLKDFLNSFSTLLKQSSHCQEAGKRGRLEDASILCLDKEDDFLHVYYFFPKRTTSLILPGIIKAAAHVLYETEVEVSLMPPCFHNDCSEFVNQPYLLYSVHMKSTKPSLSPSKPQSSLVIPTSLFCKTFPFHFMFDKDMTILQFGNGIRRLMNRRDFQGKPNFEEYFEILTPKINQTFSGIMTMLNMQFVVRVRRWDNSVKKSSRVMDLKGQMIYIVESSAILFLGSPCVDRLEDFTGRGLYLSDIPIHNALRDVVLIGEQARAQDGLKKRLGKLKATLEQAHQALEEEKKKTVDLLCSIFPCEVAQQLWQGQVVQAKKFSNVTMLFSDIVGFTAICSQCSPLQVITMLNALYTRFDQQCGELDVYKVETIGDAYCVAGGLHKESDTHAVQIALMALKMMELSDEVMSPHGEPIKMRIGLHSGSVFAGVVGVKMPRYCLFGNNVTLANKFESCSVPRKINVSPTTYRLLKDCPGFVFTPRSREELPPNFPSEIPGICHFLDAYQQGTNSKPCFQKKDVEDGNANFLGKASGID
Nature of the experiment: sGC-HEK-cGMP assay with SNP incubation (LC/MS read-out). In kind it is cell-based. Conditions: 10 μM SNP. How it is done:
(Assay Run with SNP Incubation)
Human embryonic kidney cells (HEK293), endogenously expressing soluble guanylate cyclase (sGC), were used to evaluate the activity of test compounds. Compounds stimulating the sGC receptor should cause an increase in the intracellular concentration of cGMP. HEK 293 cells were seeded in Dulbecco's Modification of Eagle's Medium supplemented with fetal bovine serum (10% final) and L-glutamine (2 mM final) in a 200 μL volume at a density of 1×10^5 cells/well in a poly-D-lysine coated 96 well flat bottom plate and grown overnight at 37° C. Medium was aspirated and cells were washed with 1× Hank's Buffered Saline Salt Solution (200 μL). Cells were then incubated for 15 minutes at 37° C. with 200 μL of a 0.5 mM 3-isobutyl-1-methylxanthine (IBMX) solution. Test article and sodium nitroprusside solutions (x μM concentration for test article solution and 10 μM concentration for SNP solution; wherein x is one of the following concentrations);
were then added to the assay mixture (2 μL each) and the resulting mixture incubated at 37° C. for 10 minutes. After the 10 minute incubation, the assay mixture was aspirated and 0.1M HCl (200 μL) was added to the cells. The plate was incubated at 4° C. for 30 minutes in the 0.1M HCl to stop the reaction and lyse the cells. The plates were then centrifuged at 1,200 g for 5 minutes at room temperature. Supernatants were collected and transferred to a new flat bottom 96 well plate for analysis by HPLC-MS. Vehicle controls were carried out using DMSO (1%) solutions. A known sGC stimulator, BAY 41-2272, was used as the positive control. Samples were diluted with an equal volume of 1 M Ammonium Acetate (pH 7) to neutralize samples for better chromatography. A 2×cGMP standard solution was prepared in 0.1 M HCl and then diluted with an equal volume of 1 M Ammonium Acetate, with the following final concentrations in nM: 1024, 512, 256, 128, 64, 32, 16, 8, 4, 2, 1. cGMP concentrations in the test plates were determined from each sample using the LC/MS conditions shown in Table 2 below and the calculated cGMP standard curve. EC50 values were calculated from concentration-response curves generated with GraphPad Prism Software.
The biological activities of some of the compounds of Formula I or Formula Ib determined with the sGC-HEK assay with SNP incubation are summarized in Tables 3A and 3B.

pEC50: −log10 of the molar value.

In the case of `Nc1ccnc(-n2cc(-c3ncco3)c(Cc3ccccc3F)n2)n1` [Compound I-2], the Emax at 10 µM (10 μM compound, 100% = BAY 41-2272 at 10 μM with 100 μM SNP, read-out: HEK assay (Percent Emax at 10 μM)) fell in the range of 80 to 100%. Further, the Emax at 30 µM (30 μM compound, 100% = BAY 41-2272 at 10 μM with 100 μM SNP, read-out: HEK assay (Percent Emax at 30 μM)) lay within 80 to 100%. Besides, the pEC50 (top of curve fitted to 100%, read-out: HEK assay EC50-constrained) is 5.30 to 6.00.
